Assay: Transformation into the amino form after incubation in mouse plasma at 37° C. (Experiment 1)
Format: in vitro ADME
Conditions: 10 mg equivalent/ml
Procedure: The lyophilized 7β-[2(Z)-ethoxyimino-2-(5-phosphonoamino-1,2,4-thiadiazol-3-yl)acetamido]-3-[4-(1-methyl-4-pyridinio)-2-thiazolylthio]-3-cephem-4-carboxylate obtained in Working Example 6, was dissolved in mouse plasma to prepare 10 mg equivalent/ml solution. After incubation at 37° C., the transformation rate into 7β-[2(Z)-ethoxyimino-2-(5-amino-1,2,4-thiadiazol-3-yl)acetamido]-3-[4-(1-methyl-4-pyridinio)-2-thiazolylthio]-3-cephem-4-carboxylate (amino form) was measured. The transformation rates in 30 minutes and 1 hour were as follows: […]

In the case of CCO/N=C(\C(=O)N[C@@H]1C(=O)N2C(C(=O)[O-])=C(Sc3nc(-c4cc[n+](C)cc4)cs3)CS[C@H]12)c1nsc(NP(=O)(O)O)n1 [Working Example 6, 7β-[2(Z)-Ethoxyimino-2-(5-phosphonoamino-1,2,4-thiadiazol-3-yl)acetamido]-3-[4-(1-methyl-4-pyridinio)-2-thiazolylthio]-3-cephem-4-carboxylate], the “transformation rate into amino form” value (30 minutes) is reported as 35% and the “transformation rate into amino form” value (1 hour) is reported as 62%.
